Test results: patent publication US20100204130A1, “USE OF HUMAN NEUROPEPTIDE AS A THERAPEUTIC AGENT” (priority 2007, published 2010)
Where a SMILES comes first, the peptide text is derived from it.

Test system: drug-resistant Mycobacterium tuberculosis
Conditions: 5 micrograms per ml

In the case of `CC(C)C[C@H](NC(=O)CNC(=O)[C@H](CCC(=O)O)NC(=O)CNC(=O)[C@H](C)N)C(=O)N[C@@H](CC(N)=O)C(=O)N[C@@H](CO)C(=O)N[C@@H](CCC(N)=O)C(=O)N[C@@H](Cc1ccccc1)C(=O)N[C@@H](Cc1c[nH]c2ccccc12)C(=O)N[C@@H](CO)C(=O)N[C@@H](CC(C)C)C(=O)N[C@@H](C)C(=O)N[C@@H](C)C(=O)N1CCC[C@H]1C(=O)N[C@@H](CCC(N)=O)C(=O)N[C@@H](CCCNC(=N)N)C(=O)N[C@@H](Cc1ccccc1)C(N)=O` [Neuropeptide AF, Ala-Gly-Glu-Gly-Leu-Asn-Ser-Gln-Phe-Trp-Ser-Leu-Ala-Ala-Pro-Gln-Arg-Phe-NH2] (H-AGEGLNSQFWSLAAPQRF-NH2), the “% inhibition” value is reported as 0.0%.
